14 compounds from patent US7268125B2 (Azevan Pharmaceuticals, Inc., priority 2001, dated 2007) can be followed below.

The target in one assay is T1, human V1a receptor (Homo sapiens, UniProt P37288).
T1 construct: host or cells: CHO cells
The experiment in a line: Human vasopressin V1a receptor binding assay. To be noted: hV1a cell line (CHO), competition with 1 nM 3H-AVP, 45 minutes at 37° C.; read-out: V1a BINDING AFFINITY (IC50 (nM)). Here is the method:
Human Vasopression V1a Receptor Binding Assay.
A cell line expressing the human V1a receptor in CHO cells (henceforth referred to as the hV1a cell line) was obtained from Dr. Michael Brownstein, NIMH, Bethesda, Md., USA. The hV1a cDNA sequence is described by Thibonnier et al., Journal of Biological Chemistry, 269, 3304-3310 (1994), and the expression method was the same as described by Morel et al. (1992). The hV1a cell line was grown in alpha-MEM with 10% fetal bovine serum and 250 ug/ml G418 (Gibco, Grand Island, N.Y., USA). For competitive binding assay, hV1a cells were plated into 6-well culture plate at 1:10 dilution from a confluency flask, and maintained in culture for at least two days. Culture medium was then removed, cells were washed with 2 ml binding buffer (25 mM Hepes, 0.25% BSA, 1×DMEM, PH=7.0). To each well, 990 μl binding buffer containing 1 nM 3H-AVP was added, and followed by 10 μl series diluted Example compounds dissolved in DMSO. […] 100 nM cold AVP (Sigma) was used to assess non-specific binding. Cells were incubated for 45 minutes at 37° C., assay mixture was removed and each well was washed three times with PBS (pH=7.4). 1 ml 2% SDS was added per well and plates were let sit for 30 minutes. The whole content in a well was transferred to a scintillation vial. Each well was rinsed with 0.5 ml PBS which was then added to the corresponding vial. Scintillation fluid (Ecoscint, National Diagnostics, Atlanta, Ga.) was then added at 3 ml per vial. Samples were counted in a liquid scintillation counter (Beckman LS3801). IC50 values were calculated by Prism Curve fitting software.
All of the alkanedioic esters and amides exemplified in the foregoing examples were tested in this assay described of Example 201.

A further assay has as its target T2, vasopressin V1a receptor (Homo sapiens, UniProt P37288).
T2 construct: host or cells: CHO cells
The experiment in a line: Inhibition of phosphatidylinositol turnover. The class given is cell-based. To be noted: hV1a cells, [3H]inositol phosphates, versus 10 nM AVP. An excerpt: Inhibition of Phosphatidylinositol Turnover.
The physiological effects of vasopressin are mediated through specific G-protein coupled receptors. The vasopressin V1a receptor is coupled to the Gq/G11 family of G proteins and mediates phosphatidylinositol turnover. The agonist or antagonist character of the compounds of the invention may be determined by their ability to inhibit vasopressin-mediated turnover of phosphatidylinositol by the procedure described in the following paragraphs.
Three days prior to the assay, near-confluent cultures of hV1a cells were dissociated and seeded in 6-well tissue culture plates, about 100 wells being seeded from each 75 cm^2 flask (equivalent to 12:1 split ratio). Each well contained 1 mL of growth medium with 2 μCi of [^3H]myo-inositol (American Radiolabeled Chemicals, St. Louis, Mo., USA).
All assays were in triplicate except for basal and 10 nM AVP (both n=6). AVP ((arginine vasopressin), Peninsula Labs, Belmont, Calif., USA (#8103)) was dissolved in 0.1N acetic acid. Test agents were dissolved in DMSO and diluted in DMSO to 200 times the final test concentration. […] The order of incubations was randomized. Incubations were initiated by removing the prelabeling medium, washing the monolayer once with 1 mL of 0.9% NaCl, and transferring the contents of the assay tubes to corresponding wells. The plates were incubated for 1 hour at 37° C. Incubations were terminated by removing the incubation medium and adding 500 μL of ice cold 0.5% (w/v) trichloroacetic acid and allowing the wells to stand for 15 min.
BioRad Poly-Prep Econo-Columns were packed with 0.3 mL of AG 1 X-8 100-200 formate form resin. Resin was mixed 1:1 with water and 0.6 mL added to each column. Columns were then washed with 10 mL water. Scintillation vials (20 mL) were placed under each column. For each well, the contents were transferred to a minicolumn, after which the well was washed with 0.5 mL distilled water, which was also added to the minicolumn. The columns were then washed twice with 5 mL of 5 mM myo-inositol to elute free inositol. Aliquots (1 mL) were transferred to 20 mL scintillation vials and 10 mL of Beckman Ready Protein Plus added. After the myo-inositol wash was complete, empty scintillation vials were placed under the columns, and [^3H]inositol phosphates were eluted with three additions of 1 mL 0.5 M ammonium formate containing 0.1 N formic acid. Elution conditions were optimized to recover inositol mono-, bis-, and trisphosphates, without eluting the more metabolically inert tetrakis-, pentakis-, and hexakis-phosphates. […] Inositol lipids were measured by adding 1 mL of 2% sodium dodecyl sulfate (SDS) to each well, allowing the wells to stand for at least 30 min., and transferring the solution to 20 mL scintillation vials, to which 10 mL Beckman Ready Protein Plus scintillation fluid was then added. Samples were counted in a Beckman LS 3801 liquid scintillation counter for 10 min. Total inositol incorporation for each well was calculated as the sum of free inositol, inositol phosphates, and inositol lipids.
Concentration-response curves for AVP and concentration-inhibition curves for test agents versus 10 nM AVP were analyzed by nonlinear least-squares curve-fitting to a 4-parameter logistic function. […] The curve-fitting was weighted under the assumption that the standard deviation was proportional to dpm of radioactivity. […] Inositol phosphates were expressed as dpm per 10^6 dpm of total inositol incorporation. […]

In general, IC50 refers to the concentration that inhibits the measured activity by half.

T1 sequence (P37288 whole entry): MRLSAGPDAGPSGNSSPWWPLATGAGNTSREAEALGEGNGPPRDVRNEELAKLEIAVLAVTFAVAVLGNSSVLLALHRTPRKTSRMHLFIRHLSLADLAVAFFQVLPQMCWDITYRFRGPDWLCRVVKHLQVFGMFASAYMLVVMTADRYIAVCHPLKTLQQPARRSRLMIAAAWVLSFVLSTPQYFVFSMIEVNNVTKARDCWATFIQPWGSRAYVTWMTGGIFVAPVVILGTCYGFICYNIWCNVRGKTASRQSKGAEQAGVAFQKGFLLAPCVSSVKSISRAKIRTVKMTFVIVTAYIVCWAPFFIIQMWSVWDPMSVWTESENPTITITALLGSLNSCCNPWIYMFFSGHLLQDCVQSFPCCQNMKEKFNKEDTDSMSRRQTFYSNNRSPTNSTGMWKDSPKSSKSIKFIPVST
T2 sequence (P37288 whole entry): as above

Consider `O=C(NCc1cccc(C(F)(F)F)c1)C(CCC(=O)N1CCN(C2CCCCC2)CC1)N1C(=O)C(N2C(=O)OCC2c2ccccc2)C1C=Cc1ccccc1` (single isomer, unassigned) [Example 110], for which the IC50 at human V1a receptor amounted to 0.49 nM. In addition, the “agonist or antagonist character by inhibition of vasopressin-mediated turnover of phosphatidylinositol” value on vasopressin V1a receptor is reported as “vasopressin V1a antagonists”.

`O=C(NCc1cccc(C(F)(F)F)c1)[C@@H](CC(=O)N1CCC(N2CCCCC2)CC1)N1C(=O)[C@@H](N2C(=O)OC[C@@H]2c2ccccc2)[C@H]1/C=C/c1ccccc1` [Example 133]: at human V1a receptor, the concentration for half-maximal inhibition (IC50) amounted to 2.43 nM. Further, the “agonist or antagonist character by inhibition of vasopressin-mediated turnover of phosphatidylinositol” value at vasopressin V1a receptor is “vasopressin V1a antagonists”.

With `O=C(NCc1cccc(C(F)(F)F)c1)[C@H](CCC(=O)N1CCN(CCc2ccccc2)CC1)N1C(=O)[C@@H](N2C(=O)OC[C@@H]2c2ccccc2)[C@H]1C=Cc1ccccc1` (single isomer, unassigned) [Example 35], the IC50 at human V1a receptor is 1.9 nM. Besides, at vasopressin V1a receptor, the “agonist or antagonist character by inhibition of vasopressin-mediated turnover of phosphatidylinositol” value is recorded as “vasopressin V1a antagonists”.

With `O=C(NCc1cccc(C(F)(F)F)c1)[C@H](CCC(=O)N1CCN(N2CCCC2)CC1)N1C(=O)[C@@H](N2C(=O)OC[C@@H]2c2ccccc2)[C@H]1/C=C/c1ccccc1` [Example 91], on human V1a receptor, the IC50 was 3.24 nM.

For `O=C(NCc1cccc(C(F)(F)F)c1)[C@H](CC(=O)N1CCC(N2CCCCC2)CC1)N1C(=O)[C@@H](N2C(=O)OC[C@@H]2c2ccccc2)[C@H]1/C=C/c1ccccc1` [Example 44], the IC50 at human V1a receptor came out at 3.1 nM. Moreover, the “agonist or antagonist character by inhibition of vasopressin-mediated turnover of phosphatidylinositol” value at vasopressin V1a receptor is listed as “vasopressin V1a antagonists”.

For `O=C(NCc1cccc(C(F)(F)F)c1)[C@H](CCC(=O)N1CCN(Cc2ccccc2)CC1)N1C(=O)[C@@H](N2C(=O)OC[C@@H]2c2ccccc2)[C@H]1/C=C/c1ccccc1` [Example 95], on human V1a receptor, the IC50 was 1.76 nM.

Take `CN1CCC(N2CCN(C(=O)CC[C@@H](C(=O)NCc3cccc(C(F)(F)F)c3)N3C(=O)[C@@H](N4C(=O)OC[C@@H]4c4ccccc4)[C@H]3/C=C/c3ccccc3)CC2)CC1` [Example 102]: the IC50 at human V1a receptor is less than 100 nM.

Take `CC(C)(C)OC(=O)C[C@@H](C(=O)NCc1cccc(C(F)(F)F)c1)N1C(=O)[C@@H](N2C(=O)OC[C@@H]2c2ccccc2)[C@H]1/C=C/c1ccccc1` [Example 19, 2(S)-(tert-Butoxycarbonylmethyl)-2-[3(S)-(4(S)-phenyloxazolidin-2-on-3-yl)-4(R)-(2-styryl)azetidin-2-on-1-yl]acetic acid N-(3-trifluoromethylbenzyl)amide]: the IC50 at human V1a receptor was found to be 35 nM.

Regarding `CCCCN1CCN(C(=O)C[C@@H](C(=O)NCc2cccc(C(F)(F)F)c2)N2C(=O)[C@@H](N3C(=O)OC[C@@H]3c3ccccc3)[C@H]2/C=C/c2ccccc2)CC1` [Example 59], on human V1a receptor, the IC50 was less than 100 nM.

Take `CCCCN1CCN(C(=O)CC[C@H](C(=O)NCc2cccc(C(F)(F)F)c2)N2C(=O)[C@@H](N3C(=O)OC[C@@H]3c3ccccc3)[C@H]2/C=C/c2ccccc2)CC1` [Example 137]: the IC50 at human V1a receptor came to 17 nM.

On to `O=C(NCc1cccc(C(F)(F)F)c1)C(CCC(=O)N1CCC(N2CCCCC2)CC1)N1C(=O)C(N2C(=O)OCC2c2ccccc2)C1C=Cc1ccccc1` (single isomer, unassigned) [Example 88], for which, at vasopressin V1a receptor, the “agonist or antagonist character by inhibition of vasopressin-mediated turnover of phosphatidylinositol” value was “vasopressin V1a antagonists”.

Regarding `CN(C)CCN(Cc1ccccc1)C(=O)CC[C@@H](C(=O)NCc1cccc(C(F)(F)F)c1)N1C(=O)[C@@H](N2C(=O)OC[C@@H]2c2ccccc2)[C@H]1/C=C/c1ccccc1` [Example 108], at human V1a receptor, the IC50 is roughly 100 nM.

For the compound `O=C(NCc1cccc(C(F)(F)F)c1)C(C(=O)N1CCN(CCc2ccccc2)CC1)N1C(=O)[C@@H](N2C(=O)OC[C@@H]2c2ccccc2)[C@H]1/C=C/c1ccccc1` (mixture of isomers) [Example 38], the IC50 on human V1a receptor was less than 25 nM.

Turning to `CC(C)N1CCN(C(=O)C(C(=O)NCc2cccc(C(F)(F)F)c2)N2C(=O)[C@@H](N3C(=O)OC[C@@H]3c3ccccc3)[C@H]2/C=C/c2ccccc2)CC1` (mixture of isomers) [Example 41], the IC50 on human V1a receptor is less than 20 nM.
